Series [1] is described as follows: Human microsomal stability assay. In kind it is in vitro ADME. The following applies: human liver microsomes, 1 μM test compound, 0.5 mg/mL protein, 37° C.; low <7.0, medium 7.0-16.2, high 16.2-23.2. The procedure: Human Microsomal Stability Assay
Human liver microsomes (Cat. NO.: 452117, Corning, USA) were preincubated with test compound for 10 minutes at 37° C. in 100 mM potassium phosphate buffer, pH 7.4. The reactions were initiated by adding NADPH regenerating system. The final incubation mixtures contained 1 μM test compound, 0.5 mg/mL liver microsomal protein, 1 mM MgCl2, 1 mM NADP, 1 unit/mL isocitric dehydrogenase and 6 mM isocitric acid in 100 mM potassium phosphate buffer, pH 7.4. After incubation times of 0, 3, 6, 9, 15 and 30 minutes at 37° C., 300 μL of cold ACN (including internal standard) was added to 100 μL incubation mixture to terminate the reaction. Following precipitation and centrifugation, 100 uL supernatant will be taken out and added 300 uL water. The amount of compound remaining in the samples was determined by LC-MS/MS. Controls of no NADPH regenerating system at zero and 30 minutes were also prepared and analyzed. The results were categorized as: low (<7.0 mL/min/kg), medium (7.0-16.2 mL/min/kg) and high (16.2-23.2 mL/min/kg).
(Liver microsomes are a subcellular fraction often used to study metabolism.)

The target in a further series is T1, human TLR9 (Homo sapiens, UniProt Q9NR96).
T1 sequence (Q9NR96 26-1032): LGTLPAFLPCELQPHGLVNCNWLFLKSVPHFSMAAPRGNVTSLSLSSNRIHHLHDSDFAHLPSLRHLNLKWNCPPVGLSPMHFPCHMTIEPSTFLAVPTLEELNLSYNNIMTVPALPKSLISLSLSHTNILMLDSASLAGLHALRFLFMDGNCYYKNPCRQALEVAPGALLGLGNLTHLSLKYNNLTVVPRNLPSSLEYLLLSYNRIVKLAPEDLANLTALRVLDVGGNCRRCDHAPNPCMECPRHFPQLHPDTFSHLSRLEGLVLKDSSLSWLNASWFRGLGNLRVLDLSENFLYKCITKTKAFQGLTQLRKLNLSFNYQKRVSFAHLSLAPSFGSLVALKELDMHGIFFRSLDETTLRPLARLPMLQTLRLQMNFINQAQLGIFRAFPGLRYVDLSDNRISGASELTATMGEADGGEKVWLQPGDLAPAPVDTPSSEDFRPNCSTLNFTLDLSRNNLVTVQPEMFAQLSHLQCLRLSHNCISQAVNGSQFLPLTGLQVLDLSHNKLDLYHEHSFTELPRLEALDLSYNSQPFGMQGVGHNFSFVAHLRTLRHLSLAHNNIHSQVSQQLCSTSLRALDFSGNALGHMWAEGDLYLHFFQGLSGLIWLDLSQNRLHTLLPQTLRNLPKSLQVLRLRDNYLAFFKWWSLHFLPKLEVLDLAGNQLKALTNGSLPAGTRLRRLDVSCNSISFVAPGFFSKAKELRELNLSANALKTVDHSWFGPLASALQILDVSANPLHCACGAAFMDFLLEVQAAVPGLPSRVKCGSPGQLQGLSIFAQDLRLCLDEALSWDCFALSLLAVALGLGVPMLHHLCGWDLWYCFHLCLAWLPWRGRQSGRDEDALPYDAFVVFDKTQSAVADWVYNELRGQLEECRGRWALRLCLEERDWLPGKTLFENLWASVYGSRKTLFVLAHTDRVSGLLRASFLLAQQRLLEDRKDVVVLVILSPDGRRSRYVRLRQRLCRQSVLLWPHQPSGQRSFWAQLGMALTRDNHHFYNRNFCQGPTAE
Nature of the series: HEK293-Blue-hTLR-9 cells assay (SEAP reporter, ODN2006 stimulation). The following applies: HEK293-Blue-hTLR9 cells, ODN2006 ligand, 20 hrs; read-out: HEK/hTLR9 IC50. It counts as cell-based. On the procedure: The following tests were carried out in order to determine the activity of the compounds of formula (I), (Ia) or (Ib) in HEK293-Blue-hTLR-7/8/9 cells assay.
HEK293-Blue-hTLR-9 Cells Assay:
A stable HEK293-Blue-hTLR-9 cell line was purchased from InvivoGen (Cat. #: hkb-htlr9, San Diego, California, USA). These cells were originally designed for studying the stimulation of human TLR9 by monitoring the activation of NF-κB. A SEAP (secreted embryonic alkaline phosphatase) reporter gene was placed under the control of the IFN-β minimal promoter fused to five NF-κB and AP-1-binding sites. The SEAP was induced by activating NF-κB and AP-1 via stimulating HEK-Blue hTLR9 cells with TLR9 ligands. Therefore the reporter expression was declined by TLR9 antagonist under the stimulation of a ligand, such as ODN2006 (Cat. #: tlrl-2006-1, Invivogen, San Diego, California, USA), for incubation of 20 hrs. The cell culture supernatant SEAP reporter activity was determined using QUANTI-Blue™ kit (Cat. #: rep-qb1, Invivogen, San Diego, California, USA) at a wavelength of 640 nm, a detection medium that turns purple or blue in the presence of alkaline phosphatase.
HEK293-Blue-hTLR9 cells were incubated at a density of 250,000˜450,000 cells/mL in a volume of 170 μL in a 96-well plate in Dulbecco's Modified Eagle's medium (DMEM) containing 4.5 g/L glucose, 50 U/mL penicillin, […], 2 mM L-glutamine, 10% (v/v) heat-inactivated fetal bovine serum with addition of 20 μL test compound in a serial dilution in the presence of final DMSO at 1% and 10 μL of 20 uM ODN2006 in above DMEM, perform incubation under 37° C. in a CO2 incubator for 20 hrs. Then 20 μL of the supernatant from each well was incubated with 180 μL Quanti-blue substrate solution at 37° C. for 2 h and the absorbance was read at 620-655 nm using a spectrophotometer. The signaling pathway that TLR9 activation leads to downstream NF-κB activation has been widely accepted, and therefore similar reporter assay was modified for evaluating TLR9 antagonist.

This note sets out measurements from patent publication US12421240B2, “Hydropyrazino[1,2-d][1,4]diazepine compounds for the treatment of autoimmune disease” (Hoffmann-La Roche Inc., priority 2019, dated 2025).

pIC50: −log10 of the molar value.

For the molecule `C[C@@H]1CN(c2ccc(C#N)c3ncccc23)C[C@@H]2CCN(Cc3ccc4c(c3)CCNC4)CCN21` [Example 11, 5-[(4R,10aS)-4-methyl-8-(1,2,3,4-tetrahydroisoquinolin-6-ylmethyl)-1,3,4,6,7,9,10,10a-octahydropyrazino[1,2-d][1,4]diazepin-2-yl]quinoline-8-carbonitrile], the “CL (h)” value in series [1] was 8.2 mL/min/kg. The pIC50 on human TLR9 was 7.31.

In the case of `C[C@@H]1CN(c2ccc(C#N)c3ncccc23)C[C@@H]2CCN(Cc3cnc(N4CCNCC4)nc3)CCN21` [Example 14, 5-[(4R,10aS)-4-methyl-8-[(2-piperazin-1-ylpyrimidin-5-yl)methyl]-1,3,4,6,7,9,10,10a-octahydropyrazino[1,2-d][1,4]diazepin-2-yl]quinoline-8-carbonitrile], the “CL (h)” value in series [1] is given as 9.8 mL/min/kg. Also, the pIC50 on human TLR9 was 7.15.

With `C[C@@H]1CN(c2ccc(C#N)c3ncccc23)C[C@@H]2CCN(Cc3cnc(N4CCNCC4)cn3)CCN21` [Example 15, 5-[(4R,10aS)-4-methyl-8-[(5-piperazin-1-ylpyrazin-2-yl)methyl]-1,3,4,6,7,9,10,10a-octahydropyrazino[1,2-d][1,4]diazepin-2-yl]quinoline-8-carbonitrile], in series [1], the “CL (h)” value was found to be 9.9 mL/min/kg. Further, at human TLR9, the pIC50 was 7.44.

Consider `C[C@@H]1CN(c2ccc(C#N)c3ncccc23)C[C@@H]2CCN(Cc3ccc(N4CCNCC4)nc3)CCN21` [Example 17, 5-[(4R,10aS)-4-methyl-8-[(6-piperazin-1-yl-3-pyridyl)methyl]-1,3,4,6,7,9,10,10a-octahydropyrazino[1,2-d][1,4]diazepin-2-yl]quinoline-8-carbonitrile], for which the “CL (h)” value in series [1] is 9.2 mL/min/kg. The pIC50 at human TLR9 was more than 7.50.

On to `C[C@@H]1CN(c2ccc(C#N)c3ncccc23)C[C@@H]2CCN(Cc3ccc(N4CCOC[C@H](N)C4)cn3)CCN21` [Example 21, 5-[(4R,10aS)-8-[[5-[(6R)-6-amino-1,4-oxazepan-4-yl]-2-pyridyl]methyl]-4-methyl-1,3,4,6,7,9,10,10a-octahydropyrazino[1,2-d][1,4]diazepin-2-yl]quinoline-8-carbonitrile], for which the “CL (h)” value in series [1] was determined as 8.5 mL/min/kg. For the same molecule, on human TLR9, the pIC50 is 6.98.

For the molecule `C[C@@H]1CN(c2ccc(C#N)c3ncccc23)C[C@@H]2CCN(Cc3ncc(N4CCNCC4)cc3F)CCN21` [Example 23, 5-[(4R,10aS)-8-[(3-fluoro-5-piperazin-1-yl-2-pyridyl)methyl]-4-methyl-1,3,4,6,7,9,10,10a-octahydropyrazino[1,2-d][1,4]diazepin-2-yl]quinoline-8-carbonitrile], in series [1], the “CL (h)” value is 8.8 mL/min/kg. Further, the pIC50 on human TLR9 was 7.41.

`CO[C@@H]1CN(c2cnc(CN3CC[C@H]4CN(c5ccc(C#N)c6ncccc56)C[C@@H](C)N4CC3)c(F)c2)C[C@H]1N` [Example 24, 5-[(4R,10aS)-8-[[5-[(3R,4R)-3-amino-4-methoxy-pyrrolidin-1-yl]-3-fluoro-2-pyridyl]methyl]-4-methyl-1,3,4,6,7,9,10,10a-octahydropyrazino[1,2-d][1,4]diazepin-2-yl]quinoline-8-carbonitrile]: the “CL (h)” value in series [1] is on record as 9.4 mL/min/kg. In addition, the pIC50 on human TLR9 is 7.22.

`CO[C@@H]1CN(c2cnc(CN3CC[C@H]4CN(c5ccc(C#N)n6ncc(F)c56)C[C@@H](C)N4CC3)c(F)c2)C[C@H]1N` [Example 27, 4-[(4R,10aS)-8-[[5-[(3R,4R)-3-amino-4-methoxy-pyrrolidin-1-yl]-3-fluoro-2-pyridyl]methyl]-4-methyl-1,3,4,6,7,9,10,10a-octahydropyrazino[1,2-d][1,4]diazepin-2-yl]-3-fluoro-pyrazolo[1,5-a]pyridine-7-carbonitrile]: the pIC50 on human TLR9 was 7.18.

Take `C[C@@H]1CN(c2cc(=O)n(C)c3ncccc23)C[C@@H]2CCN(Cc3ccc4c(c3)CNCC4)CCN21` [Example 28, 4-[(4R,10aS)-4-methyl-8-(1,2,3,4-tetrahydroisoquinolin-7-ylmethyl)-1,3,4,6,7,9,10,10a-octahydropyrazino[1,2-d][1,4]diazepin-2-yl]-1-methyl-1,8-naphthyridin-2-one]: the “CL (h)” value in series [1] is on record as 6.5 mL/min/kg. Moreover, the pIC50 at human TLR9 is more than 7.50.
